Consider six compounds from ChEMBL document CHEMBL5724914, “Linking interpersonal differences in gut microbiota composition and drug biotransformation activity” (2024).

Structures are written as SMILES.

The conditions of series [1]: human gut metagenome, 24 h, 2 µM.
Series [2] is described as follows: The drug is tested on WLS-027 corresponding to human gut metagenome with ENA study accession number: PRJEB37062 and ENA sample accession number: ERS12561744 for biotransformation under anaerobic condition. The drug concentrations were measured over 9 timepoints collected between 0 and 24 hours of incubation by liquid-chromatography-coupled mass spectrometry (LC–MS). The conditions noted are these: 2 µM.

The conditions of series [3]: human gut metagenome, 24 h, 2 µM. The source holds these as a separate data set.
Series [4] in a line: The drug is tested on WLS-350 corresponding to human gut metagenome with ENA study accession number: PRJEB37062 and ENA sample accession number: ERS12561789 for biotransformation under anaerobic condition. The drug concentrations were measured over 9 timepoints collected between 0 and 24 hours of incubation by liquid-chromatography-coupled mass spectrometry (LC–MS). As to conditions: 2 µM.

Series [5] can be described thus: The drug is tested on Z-010 corresponding to metagenome with ENA study accession number: PRJEB37062 and ENA sample accession number: ERS12561810 for biotransformation under anaerobic condition. The drug concentrations were measured over 9 timepoints collected between 0 and 24 hours of incubation by liquid-chromatography-coupled mass spectrometry (LC–MS). The conditions noted are these: 2 µM.

The nature of series [6]: The drug is tested on WLS-010 corresponding to human gut metagenome with ENA study accession number: PRJEB37062 and ENA sample accession number: ERS12561743 for biotransformation under anaerobic condition. The drug concentrations were measured over 9 timepoints collected between 0 and 24 hours of incubation by liquid-chromatography-coupled mass spectrometry (LC–MS). The conditions noted are these: 2 µM.

For series [7] the following is noted: human gut metagenome, 24 h, 2 µM. The source holds these as a separate data set.
For series [8] the following is noted: human gut metagenome, 24 h, 2 µM. The source holds these as a separate data set.
A short description of series [9]: The drug is tested on WLS-039 corresponding to human gut metagenome with ENA study accession number: PRJEB37062 and ENA sample accession number: ERS12561746 for biotransformation under anaerobic condition. The drug concentrations were measured over 9 timepoints collected between 0 and 24 hours of incubation by liquid-chromatography-coupled mass spectrometry (LC–MS). The conditions noted are these: 2 µM.

The conditions of series [10]: human gut metagenome, 24 h, 2 µM. This is another data set of the same source.
The nature of series [11]: The drug is tested on WLS-038 corresponding to human gut metagenome with ENA study accession number: PRJEB37062 and ENA sample accession number: ERS12561745 for biotransformation under anaerobic condition. The drug concentrations were measured over 9 timepoints collected between 0 and 24 hours of incubation by liquid-chromatography-coupled mass spectrometry (LC–MS). As to conditions: 2 µM.

Series [12] in a line: The drug is tested on Z-022 corresponding to mouse gut metagenome with ENA study accession number: PRJEB37062 and ENA sample accession number: ERS12561821 for biotransformation under anaerobic condition. The drug concentrations were measured over 9 timepoints collected between 0 and 24 hours of incubation by liquid-chromatography-coupled mass spectrometry (LC–MS). As to conditions: 2 µM.

Series [13] can be described thus: The drug is tested on Z-018 corresponding to pig gut metagenome with ENA study accession number: PRJEB37062 and ENA sample accession number: ERS12561817 for biotransformation under anaerobic condition. The drug concentrations were measured over 9 timepoints collected between 0 and 24 hours of incubation by liquid-chromatography-coupled mass spectrometry (LC–MS). As to conditions: 2 µM.

For series [14] the following is noted: human gut metagenome, 24 h, 2 µM. This is another data set of the same source.
Series [15] in a line: The drug is tested on WLS-090 corresponding to human gut metagenome with ENA study accession number: PRJEB37062 and ENA sample accession number: ERS12561753 for biotransformation under anaerobic condition. The drug concentrations were measured over 9 timepoints collected between 0 and 24 hours of incubation by liquid-chromatography-coupled mass spectrometry (LC–MS). As to conditions: 2 µM.

The conditions of series [16]: human gut metagenome, 24 h, 2 µM. The source holds these as a separate data set.
The nature of series [17]: The drug is tested on Z-029 corresponding to rat gut metagenome with ENA study accession number: PRJEB37062 and ENA sample accession number: ERS12561828 for biotransformation under anaerobic condition. The drug concentrations were measured over 9 timepoints collected between 0 and 24 hours of incubation by liquid-chromatography-coupled mass spectrometry (LC–MS). The conditions noted are these: 2 µM.

For series [18] the following is noted: human gut metagenome, 24 h, 2 µM. The source holds these as a separate data set.
The conditions of series [19]: human gut metagenome, 24 h, 2 µM. This is another data set of the same source.
The nature of series [20]: The drug is tested on Z-014 corresponding to rat gut metagenome with ENA study accession number: PRJEB37062 and ENA sample accession number: ERS12561814 for biotransformation under anaerobic condition. The drug concentrations were measured over 9 timepoints collected between 0 and 24 hours of incubation by liquid-chromatography-coupled mass spectrometry (LC–MS). As to conditions: 2 µM.
Also: call rule not given here.

Regarding `CC(O)(CS(=O)(=O)c1ccc(F)cc1)C(=O)Nc1ccc(C#N)c(C(F)(F)F)c1` (stereo not given) [BICALUTAMIDE], the “Bacterial Biotransformation” value in series [1], in series [2], in series [3], in [4], in series [5] and in [6] was “Compound NOT metabolized” throughout. Also, the “Bacterial Biotransformation” value in [7], in series [8], in series [9], in series [10], in series [11] and in [12] was “Compound NOT metabolized” in each case. Moreover, the “Bacterial Biotransformation” value in [13], in [14], in series [15], in series [16], in [17] and in [18] was “Compound NOT metabolized” throughout. Besides, the “Bacterial Biotransformation” value in series [19] and in series [20] was “Compound NOT metabolized” throughout.
Take `CCCC1O[C@@H]2C[C@H]3[C@@H]4CCC5=CC(=O)C=C[C@]5(C)[C@H]4[C@@H](O)C[C@]3(C)[C@]2(C(=O)CO)O1` (stereo not given in full) [BUDESONIDE]: the “Bacterial Biotransformation” value in series [1], in [2], in series [3], in [4], in [5] and in series [6] was “Compound metabolized” each time. Also, the “Bacterial Biotransformation” value is “Compound metabolized” in series [7]; “Compound NOT metabolized” in series [8]; “Compound metabolized” in [9]; “Compound NOT metabolized” in series [10]; “Compound metabolized” in series [11]; “Compound NOT metabolized” in [12]. In addition, the “Bacterial Biotransformation” value is reported as “Compound metabolized” in series [13]; “Compound metabolized” in series [14]; “Compound metabolized” in series [15]; “Compound metabolized” in series [16]; “Compound NOT metabolized” in series [17]; “Compound metabolized” in series [18]. Also, the “Bacterial Biotransformation” value in series [19] and in [20] was “Compound metabolized” in each case.
On to `O=C(NCc1ccccc1)OCCO` [BURAMATE], for which the “Bacterial Biotransformation” value in series [1], in series [2], in [3], in series [4], in series [5] and in series [6] was “Compound NOT metabolized” each time. Moreover, the “Bacterial Biotransformation” value in [7], in series [8], in series [9], in series [10], in series [11] and in [12] was “Compound NOT metabolized” each time. For the same compound, the “Bacterial Biotransformation” value in series [13], in [14], in series [15], in [16], in [17] and in [18] was “Compound NOT metabolized” throughout. The “Bacterial Biotransformation” value in [19] and in series [20] was “Compound NOT metabolized” in each case.
For `CCN(CC)CCOCCOC(=O)C1(c2ccccc2)CCCC1.O=C(O)CC(O)(CC(=O)O)C(=O)O` [CARBETAPENTANE CITRATE], the “Bacterial Biotransformation” value in series [1] is recorded as “Compound metabolized”; in [2], “Compound metabolized”; in [3] it was “Compound metabolized”; in series [4], “Compound NOT metabolized”; in series [5], “Compound metabolized”; in series [6], “Compound metabolized”. The “Bacterial Biotransformation” value in series [7] is listed as “Compound metabolized”; in series [8] it was “Compound NOT metabolized”; in [9], “Compound metabolized”; in [10], “Compound metabolized”; in series [11], “Compound metabolized”; in series [12], “Compound metabolized”. Also, the “Bacterial Biotransformation” value is on record as “Compound metabolized” in series [13]; “Compound metabolized” in series [14]; “Compound metabolized” in series [15]; “Compound metabolized” in [16]; “Compound NOT metabolized” in series [17]; “Compound metabolized” in series [18]. For the same compound, the “Bacterial Biotransformation” value is recorded as “Compound metabolized” in [19] and “Compound NOT metabolized” in series [20].
In the case of `O=C(O)COCCN1CCN(C(c2ccccc2)c2ccc(Cl)cc2)CC1` (stereo not given) [CETIRIZINE], the “Bacterial Biotransformation” value in [1], in series [2], in series [3], in series [4], in series [5] and in [6] was “Compound metabolized” in each case. Moreover, the “Bacterial Biotransformation” value in [7], in series [8], in series [9], in series [10], in series [11] and in series [12] was “Compound metabolized” each time. In addition, the “Bacterial Biotransformation” value was “Compound NOT metabolized” in series [13]; “Compound metabolized” in series [14]; “Compound metabolized” in series [15]; “Compound metabolized” in [16]; “Compound NOT metabolized” in series [17]; “Compound metabolized” in series [18]. Further, the “Bacterial Biotransformation” value is “Compound metabolized” in series [19] and “Compound NOT metabolized” in series [20].
In the case of `CN/C(=N/CCSCc1nc[nH]c1C)NC#N` [CIMETIDINE], the “Bacterial Biotransformation” value in series [1] was “Compound NOT metabolized”; in series [2] it was “Compound metabolized”; in series [3], “Compound metabolized”; in series [4] it was “Compound NOT metabolized”; in [5], “Compound metabolized”; in series [6], “Compound metabolized”. Moreover, the “Bacterial Biotransformation” value in series [7] is recorded as “Compound metabolized”; in series [8], “Compound NOT metabolized”; in series [9], “Compound NOT metabolized”; in series [10], “Compound NOT metabolized”; in series [11], “Compound NOT metabolized”; in [12] it was “Compound NOT metabolized”. Also, the “Bacterial Biotransformation” value in series [13] was “Compound metabolized”; in series [14], “Compound NOT metabolized”; in [15], “Compound metabolized”; in series [16] it was “Compound NOT metabolized”; in [17], “Compound NOT metabolized”; in series [18], “Compound metabolized”. In addition, the “Bacterial Biotransformation” value in series [19] and in series [20] was “Compound NOT metabolized” in each case.
